We go through eight compounds from patent US20180368410A1, “MICROBIOCIDAL OXADIAZOLE DERIVATIVES” (SYNGENTA PARTICIPATIONS AG, priority 2015, published 2018).

One data set deals with Phakopsora pachyrhizi. As to the kind of experiment: Phakopsora pachyrhizi / soybean / leaf disc preventative (Asian soybean rust). The note with it: foliar, 200 ppm in the applied formulation, inoculated one day after application, assessed 12 to 14 days after application, vs untreated control leaf disks, read-out: disease control. The data set is classed as in vivo, Phakopsora pachyrhizi on soybean. Summed up: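 Read-out is percent disease control relative to untreated check discs, assessed once untreated discs show adequate disease, 12 to 14 days after application. Compounds, tested at 200 ppm in the applied formulation, are sprayed onto soybean leaf discs one day before inoculation with a spore suspension.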

Data set [1] relates to Puccinia recondita f. Sp. Tritici. The experiment in a line: Puccinia recondita f. sp. tritici / wheat / leaf disc preventative (brown rust). The data set is classed as in vivo, Puccinia recondita f. sp. tritici on wheat cv. Kanzler. As to conditions: foliar, 200 ppm in the applied formulation, inoculated 1 day after application, assessed 7 to 9 days after application, vs untreated control leaf disks, read-out: disease control. Summed up:
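Wheat cv. Kanzler leaf segments on agar were sprayed with compound (DMSO stock diluted with 0.025% Tween20) 1 day before inoculation with spores. Segments were held at 19 °C, 75% rh, 12 h light/dark. Percent disease control versus untreated was scored 7–9 days after application.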

Data set [2] concerns Puccinia recondita f. Sp. Triticil. As to the kind of experiment: Puccinia recondita f. sp. tritici / wheat / leaf disc curative (brown rust). The note with it: foliar, 200 ppm in the applied formulation, applied 1 day after inoculation, assessed 6 to 8 days after application, vs untreated control leaf disks, read-out: disease control. The data set is classed as in vivo, Puccinia recondita f. sp. tritici on wheat cv. Kanzler. Summed up: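 Curative leaf-segment test, cv. Kanzler: spore inoculation, dark storage 19° C/75% RH, compound spray 1 day post-inoculation. Then 12 h light/12 h dark, 19° C, 75% RH. Read-out: % disease control vs untreated check, 6–8 d after application.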

Data set [3] concerns Glomerella Lacenarium (Colletotrichum lacenarium). The experiment in a line: Glomerella lagenarium (Colletotrichum lagenarium) liquid culture / cucumber / preventative (anthracnose). The note with it: 20 ppm in the applied formulation, liquid culture in PDB, 24° C., inhibition of growth measured photometrically 3 to 4 days after application, vs untreated control, read-out: disease control. The data set is classed as cell-based. Summed up: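 PDB broth seeded with cryo-stored conidia, added onto compound (DMSO solution) in 96-well plates; 24° C.; photometric growth read at 3–4 d post-application; % inhibition vs untreated check.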

Some results are limits rather than exact numbers.

For orientation: melting point means the temperature, or range, at which the solid turns liquid.

For `O=C(NCc1ccc(-c2noc(C(F)(F)F)n2)c(F)c1)C1CCCO1` (stereo not drawn) [Compound 1.59, N-[[3-fluoro-4-[5-(trifluoromethyl)-1,2,4-oxadiazol-3-yl]phenyl]methyl] tetrahydrofuran-2-carboxamide], the melting point was 56 to 58 °C. In addition, in the data set on Phakopsora pachyrhizi, the pest or weed control at 200 ppm is at least 80%. Moreover, the pest or weed control at 200 ppm in data set [1] is at least 80%. Further, in data set [2], the pest or weed control at 200 ppm is at least 80%. Further, the inhibition of growth at 20 ppm in data set [3] is at least 80%.

Take `O=C(NCc1ccc(-c2noc(C(F)(F)F)n2)c(F)c1F)C1CCCO1` (stereo not drawn) [Compound 1.80, N-[[2,3-difluoro-4-[5-(trifluoromethyl)-1,2,4-oxadiazol-3-yl]phenyl]methyl] tetrahydrofuran-2-carboxamide]: the melting point lay within 80 to 86 °C. Moreover, the pest or weed control at 200 ppm in the data set on Phakopsora pachyrhizi is at least 80%. The pest or weed control at 200 ppm in data set [1] was at least 80%. Further, the pest or weed control at 200 ppm in data set [2] was at least 80%. The inhibition of growth at 20 ppm in data set [3] is at least 80%.

On to `O=C(NCCc1ccc(-c2noc(C(F)(F)F)n2)cc1)C1CCCO1` (stereo not drawn) [Compound 1.97, N-[2-[4-[5-(trifluoromethyl)-1,2,4-oxadiazol-3-yl]phenyl]ethyl] tetrahydrofuran-2-carboxamide], for which the melting point was 68.7 to 70.5 °C. In addition, the pest or weed control at 200 ppm in the data set on Phakopsora pachyrhizi is at least 80%. In addition, the pest or weed control at 200 ppm in data set [1] was at least 80%. For the same compound, the pest or weed control at 200 ppm in data set [2] was at least 80%. In addition, in data set [3], the inhibition of growth at 20 ppm was at least 80%.

`O=C(NCCc1ccc(-c2noc(C(F)(F)F)n2)cc1)C1CC1` [Compound 1.96, N-[2-[4-[5-(trifluoromethyl)-1,2,4-oxadiazol-3-yl]phenyl]ethyl] cyclopropanecarboxamide]: the melting point is 150 to 151.1 °C. Also, in the data set on Phakopsora pachyrhizi, the pest or weed control at 200 ppm was at least 80%. In addition, the pest or weed control at 200 ppm in data set [1] is at least 80%. For the same compound, the pest or weed control at 200 ppm in data set [2] was at least 80%. In addition, the inhibition of growth at 20 ppm in data set [3] was at least 80%.

`O=C(NCc1ccc(-c2noc(C(F)(F)F)n2)c(F)c1)C1CC1` [Compound 1.57, N-[[3-fluoro-4-[5-(trifluoromethyl)-1,2,4-oxadiazol-3-yl]phenyl]methyl] cyclopropanecarboxamide] gave a melting point of 139 to 140 °C. In the data set on Phakopsora pachyrhizi, the pest or weed control at 200 ppm is at least 80%. For the same compound, the pest or weed control at 200 ppm in data set [1] was at least 80%. Further, the pest or weed control at 200 ppm in data set [2] is at least 80%. Besides, the inhibition of growth at 20 ppm in data set [3] is at least 80%.

Turning to `O=C(NCc1ccc(-c2noc(C(F)(F)F)n2)c(F)c1)c1ccccc1Cl` [Compound 1.58, 2-chloro-N-[[3-fluoro-4-[5-(trifluoromethyl)-1,2,4-oxadiazol-3-yl]phenyl]methyl] benzamide], the melting point lay within 146 to 148 °C. Further, in the data set on Phakopsora pachyrhizi, the pest or weed control at 200 ppm was at least 80%. Moreover, the pest or weed control at 200 ppm in data set [1] was at least 80%. Moreover, the inhibition of growth at 20 ppm in data set [3] is at least 80%.

In turn, `O=C(NCc1ccc(-c2noc(C(F)(F)F)n2)c(F)c1F)C1CC1` [Compound 1.55, N-[[2,3-difluoro-4-[5-(trifluoromethyl)-1,2,4-oxadiazol-3-yl]phenyl]methyl] cyclopropanecarboxamide] came in with a melting point of 144 to 150 °C. In the data set on Phakopsora pachyrhizi, the pest or weed control at 200 ppm is at least 80%. Also, in data set [1], the pest or weed control at 200 ppm is at least 80%. In addition, the pest or weed control at 200 ppm in data set [2] was at least 80%. In addition, in data set [3], the inhibition of growth at 20 ppm is at least 80%.

Turning to `CC1=NOC(C(=O)NCc2ccc(-c3noc(C(F)(F)F)n3)c(F)c2)C1` (stereo not drawn) [Compound 1.60, N-[[3-fluoro-4-[5-(trifluoromethyl)-1,2,4-oxadiazol-3-yl]phenyl]methyl]-3-methyl-4,5-dihydroisoxazole-5-carboxamide], the melting point was in the range of 134 to 138 °C. In addition, in the data set on Phakopsora pachyrhizi, the pest or weed control at 200 ppm was at least 80%. Moreover, in data set [1], the pest or weed control at 200 ppm is at least 80%. Also, the pest or weed control at 200 ppm in data set [2] was at least 80%. The inhibition of growth at 20 ppm in data set [3] is at least 80%.
